From patent US8841463B2, “Cathepsin C inhibitors” (GlaxoSmithKline Intellectual Property Development Limited, priority 2011, dated 2014) come the findings set out here.

The experiment concerns the target recombinant human cathepsin C (Homo sapiens, UniProt P53634). The experiment can be described thus: Recombinant Cathepsin C in vitro assay (cleavage of fluorogenic substrate H-Ser-Tyr-AMC). In kind it is biochemical. The conditions noted are these: average of two experiments; one hour preincubation, pH 5.5, room temperature; read-out: concentration giving 50% cathepsin C inhibition. The protocol: B. Recombinant Cathepsin C In Vitro Assay:
The activity of recombinant human cathepsin C was measured by the cleavage of a fluorogenic substrate, H-Ser-Tyr-AMC. Briefly, 24 pM cathepsin C was incubated with test compound (e.g. inhibitor) in a buffer consisting of 50 mM sodium acetate, 30 mM sodium chloride, 1 mM CHAPS, 1 mM dithiothreitol, 1 mM EDTA, pH 5.5 at room temperature for one hour. After one hour of incubating test compound with cathepsin C, the activity assay was initiated by the addition of an equal volume of 0.010 mM H-Ser-Tyr-AMC in the same buffer. After one hour, the activity assay was stopped by the addition of ⅕ volume of 100 μM E-64. The reaction product was measured on a fluorescence reader set at an excitation wavelength of 360 nm and emission wavelength of 460 nm and equipped with a 400 nm dichroic mirror.

Structures are written as SMILES. Where a name gives a salt, the structure may show the parent alone.

Sequence of recombinant human cathepsin C (P53634 25-463): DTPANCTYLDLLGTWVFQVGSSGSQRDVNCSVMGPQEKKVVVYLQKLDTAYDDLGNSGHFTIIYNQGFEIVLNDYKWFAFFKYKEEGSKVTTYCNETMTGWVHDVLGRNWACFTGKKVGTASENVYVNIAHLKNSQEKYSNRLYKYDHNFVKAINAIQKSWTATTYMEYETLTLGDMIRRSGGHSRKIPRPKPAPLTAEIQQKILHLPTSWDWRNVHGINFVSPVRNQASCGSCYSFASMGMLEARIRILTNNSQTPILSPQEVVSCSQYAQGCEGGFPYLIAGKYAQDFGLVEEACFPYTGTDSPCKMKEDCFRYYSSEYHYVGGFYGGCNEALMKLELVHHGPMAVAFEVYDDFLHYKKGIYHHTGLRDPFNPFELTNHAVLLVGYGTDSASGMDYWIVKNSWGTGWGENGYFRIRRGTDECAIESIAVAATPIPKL

Consider `CC[C@@H](/C=C/C(=O)N1CCc2ccccc21)NC(=O)C1(N)CCOCC1` [Example 1, 4-amino-N-[(1S,2E)-4-(2,3-dihydro-1H-indol-1-yl)-1-ethyl-4-oxo-2-buten-1-yl]tetrahydro-2H-pyran-4-carboxamide hydrochloride], for which the IC50 was < 1 nM. The result for `CC(C)C[C@@H](/C=C/C(=O)N1CCc2ccccc21)NC(=O)C1(N)CCOCC1` [Example 2, 4-amino-N-[(1S,2E)-4-(2,3-dihydro-1H-indol-1-yl)-1-(2-methylpropyl)-4-oxo-2-buten-1-yl]tetrahydro-2H-pyran-4-carboxamide hydrochloride] reads < 1 nM.
